Square brackets hold non-standard residues; d marks the D form. Peptide text beside a SMILES is read from it. Sar = CNCC(=O)O
Target: T1, Solute carrier family 15 member 1 (Homo sapiens) (UniProt P46059)
T1 sequence (whole entry): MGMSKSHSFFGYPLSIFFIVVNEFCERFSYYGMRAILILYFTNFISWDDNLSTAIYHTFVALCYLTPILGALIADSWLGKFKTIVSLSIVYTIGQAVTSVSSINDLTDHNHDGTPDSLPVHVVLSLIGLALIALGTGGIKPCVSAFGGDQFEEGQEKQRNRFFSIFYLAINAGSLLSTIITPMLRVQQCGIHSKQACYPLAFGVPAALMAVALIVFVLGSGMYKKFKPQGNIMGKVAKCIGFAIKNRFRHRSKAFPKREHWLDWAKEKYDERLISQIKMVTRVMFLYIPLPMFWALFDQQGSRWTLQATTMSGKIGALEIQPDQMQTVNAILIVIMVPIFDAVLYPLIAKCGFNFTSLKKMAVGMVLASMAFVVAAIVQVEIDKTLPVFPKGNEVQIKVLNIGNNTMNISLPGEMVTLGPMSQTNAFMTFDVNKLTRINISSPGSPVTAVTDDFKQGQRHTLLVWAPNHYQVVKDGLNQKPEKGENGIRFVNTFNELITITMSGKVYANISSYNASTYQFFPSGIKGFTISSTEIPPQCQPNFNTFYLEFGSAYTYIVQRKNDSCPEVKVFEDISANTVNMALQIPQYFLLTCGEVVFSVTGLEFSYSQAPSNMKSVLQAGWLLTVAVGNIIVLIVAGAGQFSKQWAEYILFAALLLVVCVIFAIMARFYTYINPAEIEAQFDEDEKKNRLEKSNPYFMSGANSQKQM
Experiment: TP_TRANSPORTER: uptake in Xenopus laevis oocytes
Type: functional, cell-based
Conditions: Oocyte

Activity: substrate [+]
Structure (SMILES): CN(CC(=O)O)C(=O)CN (H-Gly-[Sar]-OH)
